One substance from patent US20240382564A1, “Methods and Compositions for Treating Muscular Dystrophy and Memory Impairment” (Allysta Pharmaceuticals, Inc., priority 2023, published 2024) can be followed below.

Holding throughout (type): in vivo, mouse
Experiment [1] concerns D2.mdx mice. As to the kind of experiment: Mitochondrial respiration in permeabilized muscle fibre bundles. Particulars: quadriceps and diaphragm; multiple substrate conditions; LD and HD. On the procedure:
(§1) D2.mdx mice were treated with ALY688 at two different dosages; high dose (HD; 15 mg/kg body weight/day) or low dose (LD; 3 mg/kg body weight/day) dissolved in saline. A separate group of mice were treated with saline alone (VEH, vehicle). Treatment was provided via subscapular subcutaneous injections from 7 days of age to 28-30 days. […] At 28-30 days of age, mice were anaesthetized with isoflurane vaporized in medical air (21% oxygen) at a 2 L/min flow rate. Due to tissue limitations in limb muscle, certain measures were performed separately in tibialis anterior and quadriceps across several phases of breeding. Following the treatment protocol, in situ quadriceps force assessments were then performed in one limb followed by removal of the quadriceps from the other limb for mitochondrial assessments, diaphragm for in vitro force assessments and finally other tissues for further processing as described below. […]
High resolution oxygen consumption (an index of mitochondrial respiration) was performed in 2 mL of MiRO5 supplemented with (creatine-dependent) or without (creatine independent) 20 mM creatine to saturate mitochondrial creatine kinase activity. O2 consumption was measured using the Oroboros Oxygraph-2K (Oroboros Instruments, Corp., Innsbruck, Austria) while stirring at 37° C. in the presence of 5 μM blebbistatin to prevent muscle fibre contraction by rigor in response to ADP. […]

Experiment [2] deals with D2.mdx mice. Kind of experiment: Muscle cytokine mRNA by quantitative PCR. On the procedure: D2.mdx mice were treated with ALY688 at two different dosages; high dose (HD; 15 mg/kg body weight/day) or low dose (LD; 3 mg/kg body weight/day) dissolved in saline. A separate group of mice were treated with saline alone (VEH, vehicle). Treatment was provided via subscapular subcutaneous injections from 7 days of age to 28-30 days. […] At 28-30 days of age, mice were anaesthetized with isoflurane vaporized in medical air (21% oxygen) at a 2 L/min flow rate. Due to tissue limitations in limb muscle, certain measures were performed separately in tibialis anterior and quadriceps across several phases of breeding. Following the treatment protocol, in situ quadriceps force assessments were then performed in one limb followed by removal of the quadriceps from the other limb for mitochondrial assessments, diaphragm for in vitro force assessments and finally other tissues for further processing as described below. Muscle and visceral organs weights were normalized to tibia length. Tissue collected from the first phase were utilized in force, histological, mitochondrial measures (respiration, mH2O2 and calcium retention capacity) and western analyses (diaphragm and quadriceps only). A second phase was then collected and utilized for cytokine profiling, qPCR analyses and additional westerns (TA only). Serum was collected from both phase 1 and 2 and utilized for serum CK analysis. All animals were utilized in in vivo functional assays (grip strength, cage hang time and voluntary wheel running).
Samples were lysed using TRIzol reagent and RNA was separated to aqueous phase using chloroform. The aqueous layer containing RNA was then mixed with isopropanol and loaded to Aurum Total RNA Mini Kit columns (Bio-Rad, Mississauga, ON, Canada). Total RNA was then extracted according to the manufacturer's instructions and concentration was assessed on the nanodrop attachment for the Varioskan LUX Multimode Microplate reader (Thermo Scientific). Reverse transcription of RNA into cDNA was performed by M-MLV reverse transcriptase and oligo (dT) primers (Qiagen). cDNA was then amplified in a CFX384 Touch Real-Time PCR Detection Systems (Bio-Rad) with a SYBR Green master mix and specific primers. Standard curves were created by plotting log DNA concentrations against Ct values from a 1:5 serial dilutions with CFX Manager Software. Gene expression was normalized to a Rplp0 control, and relative differences were determined using the ΔΔCt method Values are presented as fold increases relative to WT group.

In experiment [3] the test system is D2.mdx mice. Kind of experiment: H&E staining, damaged areas of muscle. On the procedure:
as §1, with “breeding.” for “breeding. Following the treatment protocol, in situ quadriceps force assessments were then performed in one limb followed by removal of the quadriceps from the other limb for mitochondrial assessments, diaphragm for in vitro force assessments and finally other tissues for further processing as described below.”
Samples collected were cut into 8 µm thick serial cross sections with a cryostat (Thermo Fisher Scientific; Kalamazoo, MI, United States;) maintained at −20° C. on Fisherbrand Superfrost Plus slides (Thermo Fisher Scientific). […] Centralized nuclei, a marker of regenerating fibres, was analyzed by selecting five evenly spaced images throughout the muscle and averaging the result. Areas of damage (fibres with fragmented sarcoplasm and immune cell infiltration) were expressed as a percentage of the entire muscle section. Images were taken using EVOS M7000 imager (Thermo Fisher Scientific) using 20× magnification and analyzed using ImageJ (http://imagej.nih.gov/ij/). […] These images were then analyzed with ImageJ for minimal Feret's diameter as an index of muscle atrophy.

Where no end group is shown, it is not given here. [ ]: non-standard residue; d: D form. Nva = CCC[C@H](N)C(=O)O

As for [dN]IP[Nva]LY[dS]FA[dS]-NH2 [ALY688], the ADP-stimulated respiration result in the experiment on D2.mdx mice [1] is “generally no effect of either dose”. For the same substance, in the experiment on D2.mdx mice [2] (diaphragm, HD), the “IL-10 mRNA content” value is reported as “not different between groups”, the “TGF-β mRNA contents” value is “unchanged in all groups” and the “TNF-α mRNA content” value was “not different between groups”. Further, the “IL-1β mRNA” value in the experiment on D2.mdx mice [2] (diaphragm, HD vs VEH) is recorded as “not affected by the drug”. In the experiment with D2.mdx mice [2] (diaphragm, HD, increase in VEH attenuated), the “IL-6 mRNA content” value is on record as 51.8 % increase vs WT. Besides, the “attenuation of TNF-α mRNA compared to VEH” value in the experiment with D2.mdx mice [2] (tibialis anterior, HD) was found to be 41.4%. The “damaged areas (H&E)” value in the experiment on D2.mdx mice [3] (diaphragm, all D2.mdx groups (VEH, LD, HD)) is given as 3.7-to-3.9 fold change vs WT. Besides, the “damaged areas (H&E)” value in the experiment with D2.mdx mice [3] (tibialis anterior, all three D2.mdx groups) is on record as 17.2-to-22.6 fold increase vs WT.
